Test results from patent US12161630B2, “Methods to control infection using new generation small molecule growth inhibitors” (priority 2017, dated 2024).
In brackets after ≈: the same amount, converted by molar mass.

Experiments:
Salmonella Enteritidis = assay: MIC and MBC dose-response, serotype Enteritidis; type: cell-based, Salmonella enterica; conditions: MIC identical to MBC
Description: (§1) An overnight Salmonella suspension was normalized at 0.05 OD600 (approximately 3.5×10^7 CFU/ml) with an adjusted M9 minimal broth medium (12.7 mM Na2HPO4 7H2O; 22 mM KH2PO4; 18.7 mM NH4Cl; 2 mM MgSO4; 0.1 mM CaCl2; 0.4% glucose; 0.05% casamino acids). 100 μL of the suspension plus 2 μl of SMs (200 μM) were transferred into each well of a sterile, non-treated, flat bottom 96-well plate. Bacteria alone (negative control, NC), 2% DMSO plus bacteria (DMSO control), 20 μg/ml chloramphenicol or 50 μg/ml kanamycin plus bacteria (positive controls, PC), and M9 medium only were used as control. Plates were incubated in a Sunrise™ Tecan kinetic microplate reader for 12 hrs at 37° C. and the optical density (OD) was measure at 600 nm as described above. Percentage of inhibition=(OD600 SM−OD600 NC)/(OD600 NC)×100. […] Cultures from wells showing no turbidimetric increase were transferred onto a XLT4 agar plate. Plates were incubated at 37° C. for 36 hrs.
(§2) Screens were performed as described in the primary screen. The lowest SM concentration with a static effect was considered as the minimal inhibitory concentration (MIC) and the lowest SM concentration with a cidal effect was considered as the minimal bactericidal concentration (MBC).

[1] = test system: Galleria mellonella larvae; assay: Toxicity on Galleria mellonella larva; type: in vivo; conditions: over 72 HPI, single treatment with 12.5 μg per larva
Description: Toxicity of the selected four SMs on Galleria mellonella larva: Galleria mellonella larvae (fifth instar stage) were incubated for 12 hrs at 37° C. in the dark. After incubation, only larvae with a white phenotype and a body weight ranging between 225 mg to 275 mg were selected for the injection. Fifteen larvae per group were inoculated in one of the last pro-leg with 12.5 μg of SMs (8.5 μl) using a PB600-1 repeating dispenser (Hamilton, Reno, NV) attached to 300 μl insulin syringe, 31-gauge, 8 mm needle length (ReliOn®, Bentonville, AR). SMs were diluted into a buffer mix (30% DMSO plus 10 mM MgSO4). Larvae were placed inside a plastic petri dish and incubated for 3 days in the dark at 37° C. Every 12 hrs of interval, the larva survival was monitored. Non-treated larvae, larvae treated with the buffer mix, and larvae treated with 12.5 μg of chloramphenicol were used as control. At least two independent experiments were conducted.

[2] = test system: S. typhimurium cell membrane; assay: Crystal violet uptake after treatment with lethal dose of SMs; type: cell-based; conditions: 1 hr; for reduction of crystal violet uptake: compared to 1% DMSO control
Description: (§3) To further support the observation obtained with confocal microscopy, the same samples were analyzed using scanning electron microscopy (SEM; FIG. 13P-S). […] Smaller outer membrane vesicles of approximately 20 to 70 nm were also observed covering the surface of the bacteria. […] These conclusions were further supported by measuring the crystal violet uptake and leakage of materials assessed at 260 nm after 1 hr of treatment with a lethal dose of SMs.

Salmonella Muenchen = assay: MIC and MBC dose-response, serotype Muenchen; type: cell-based, Salmonella enterica; conditions: MIC identical to MBC
Description: as §1, §2

Salmonella Albany = assay: MIC and MBC dose-response, serotype Albany; type: cell-based, Salmonella enterica; conditions: MIC identical to MBC
Description: as §1, §2

[3] = test system: S. typhimurium cell membrane; assay: Leakage of 260 nm-absorbing material after treatment with lethal dose of SMs; type: cell-based; conditions: 1 hr, compared to 1% DMSO control
Description: as §3

Salmonella Heidelberg = assay: MIC and MBC dose-response, serotype Heidelberg; type: cell-based, Salmonella enterica; conditions: MIC identical to MBC
Description: as §1, §2

Salmonella Newport = assay: MIC and MBC dose-response, serotype Newport; type: cell-based, Salmonella enterica; conditions: MIC identical to MBC
Description: as §1, §2

[4] = test system: S. typhimurium WT internalized in Caco-2 cells; assay: S. typhimurium intracellular survival in infected Caco-2 cells; type: cell-based; conditions: S. Typhimurium-infected Caco-2 cells, 24 hrs treatment
Description: Effect of the four SMs on S. typhimurium intracellular survival in cells lines: The ability of four SMs to clear S. typhimurium WT […] was evaluated using three cell lines (Caco-2 cells, HD11, and THP-1 cells). The Salmonella intracellular survival as assessed as described (13). A multiplicity of infection “MOI” of 10 was used. Infected cells were treated with 1 μl of SMs (final concentration ranged between 100 μM and 6.25 μM) at 37° C. for 24 hrs in humidified, 5% CO2 incubator. Following incubation, cells were washed once with 150 μl of 1×PBS, lysed with 0.1% Triton-100X, serial ten-fold diluted in 1×PBS, and plated on agar plate. Plates were incubated at 37° C. for 24 hrs to determine the intracellular survival. Cells not infected and not treated, and cells infected and treated with 2% DMSO were used as controls.

Row | SMILES | MIC/MBC (Salmonella Enteritidis) [µM] | lethal effect in G. mellonella larvae [1] | reduction of crystal violet uptake [2] [fold] | MIC/MBC (Salmonella Muenchen) [µM] | MIC/MBC (Salmonella Albany) [µM] | increase in 260 nm-absorbing material [3] [fold] | MIC/MBC (Salmonella Heidelberg) [µM] | MIC/MBC (Salmonella Newport) [µM] | MBC (μm), Caco-2 cells [4] [µM] | increase in permeability (crystal violet uptake) ([2]; compared to 1% DMSO-treated cells) [fold]
1 | CC1CCC(C(C)C)C(OC(=O)Cn2c[n+](CC(=O)OC3CC(C)CCC3C(C)C)c3ccccc32)C1.[Cl-] (stereo not drawn) [SM1, 1,3-bis{2-[(2-isopropyl-5-methylcyclohexyl)oxy]-2-oxoethyl}-1H-3,1-benzimidazol-3-ium chloride] | 100 | chronic death of the larvae over time | 1.88 | 100 | 100 | 2.18 | 100 | 100 | 25 | 
2 | CCCCCCCCCCCCCCCC[n+]1ccn(CC#N)c1.[Cl-] [SM3, 1-(cyanomethyl)-3-hexadecyl-1H-imidazol-3-ium chloride] | 25 | killed only a few larvae | 4.46 | 50 | 25 | 7.17 | 50 | 50 | 50 | 
3 | CCCCCCCCCCCCCCCCn1c[n+](C)c2ccccc21.[Br-] [SM4, 1-hexadecyl-3-methyl-1H-3,1-benzimidazol-3-ium bromide] | 10 | no lethal effect | 2.01 | 25 | 10 | 15.95 | 25 | 25 | 25 | 
4 | CCOc1cc(/C=N/N=C(N)N)ccc1OCc1ccc(Cl)cc1 [SM5, N″-{4-[(4-chlorobenzyl)oxy]-3-ethoxybenzylidene}carbonohydrazonic diamide] | 50 (≈ 17.3 µg/mL) | killed only a few larvae |  | 50 (≈ 17.3 µg/mL) | 100 (≈ 34.7 µg/mL) | 5.25 | 50 (≈ 17.3 µg/mL) | 50 (≈ 17.3 µg/mL) | 12.5 (≈ 4.34 µg/mL) | 2.32
